Consider 22 compounds from patent US20250230155A1 (Vanderbilt University, priority 2021, published 2025).

Molecules are shown by their SMILES.

This assay has as its target T1, human mAChR M4 (Homo sapiens, UniProt P08173).
T1 construct: expressed in transfected cells
T1 sequence (P08173 1-479): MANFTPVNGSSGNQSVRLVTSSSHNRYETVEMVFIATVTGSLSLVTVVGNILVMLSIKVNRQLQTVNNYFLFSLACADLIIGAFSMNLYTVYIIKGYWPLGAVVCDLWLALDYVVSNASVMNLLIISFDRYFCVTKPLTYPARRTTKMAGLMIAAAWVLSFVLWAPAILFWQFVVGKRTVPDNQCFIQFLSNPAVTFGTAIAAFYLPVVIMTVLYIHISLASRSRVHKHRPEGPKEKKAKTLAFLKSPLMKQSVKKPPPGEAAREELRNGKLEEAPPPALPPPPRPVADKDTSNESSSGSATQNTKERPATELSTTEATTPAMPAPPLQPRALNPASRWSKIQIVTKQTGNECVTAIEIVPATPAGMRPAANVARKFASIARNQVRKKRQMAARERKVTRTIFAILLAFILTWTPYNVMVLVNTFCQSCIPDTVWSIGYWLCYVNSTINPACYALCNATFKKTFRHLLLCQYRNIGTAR
As to the kind of experiment: mAChR M4 cell-based functional assay (calcium mobilization, CHO-K1 hM4-Gqi5 cells). The conditions noted are these: for Emax at 30 µM: CHO-K1, % ACh maximum at 30 μM, human M4; for EC50: positive allosteric modulator activity, increase in the EC20 acetylcholine response, CHO-K1 hM4-Gqi5 cells, read-out: Human M4 EC50. The method in brief:
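CHO-K1 cells stably expressing human M4 with chimeric Gqi5, loaded with Fluo-4 AM; compounds given as 11-point 1:3 curves and calcium flux read on FDSS at 1 Hz. Acetylcholine EC20 added at 144 s, EC80 at 230 s; agonist, PAM (EC20 potentiation) and antagonist (EC80 inhibition) EC50/Emax from four-parameter fits.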
In general terms: Calcium assays in cells follow changes in intracellular calcium, usually with a dye or a luminescent sensor.

On to `[2H]C([2H])(NC(=O)c1cc(C)c(N2CCc3ncc(C(F)(F)F)cc3C2)nn1)c1cscn1` [Example 507, 5-methyl-N-(thiazol-4-ylmethyl-d2)-6-(3-(trifluoromethyl)-7,8-dihydro-1,6-naphthyridin-6(5H)-yl)pyridazine-3-carboxamide], for which the Emax at 30 µM amounted to 81% and the EC50 came out at 43 nM.

As for `[2H]C([2H])(NC(=O)c1cc(C)c(N2CCc3ncc(N4CCCn5nccc54)cc3C2)nn1)c1cscn1` [Example 508, 6-(3-(6,7-dihydropyrazolo[1,5-a]pyrimidin-4(5H)-yl)-7,8-dihydro-1,6-naphthyridin-6(5H)-yl)-5-methyl-N-(thiazol-4-ylmethyl-d2)pyridazine-3-carboxamide], the Emax at 30 µM was found to be 82% and the EC50 is 13 nM.

In the case of `[2H]C([2H])(NC(=O)c1cc(C)c(N2CCc3ncc(N4CCCn5nccc54)cc3C2)nn1)c1ccncc1` [Example 509, 6-(3-(6,7-dihydropyrazolo[1,5-a]pyrimidin-4(5H)-yl)-7,8-dihydro-1,6-naphthyridin-6(5H)-yl)-5-methyl-N-(pyridin-4-ylmethyl-d2)pyridazine-3-carboxamide], the Emax at 30 µM is 104% and the EC50 was found to be 12 nM.

Take `O=C(NCc1cncs1)c1ccc(N2CCc3ncc(C(F)(F)F)cc3C2)nn1` [Example 510, N-(thiazol-5-ylmethyl)-6-(3-(trifluoromethyl)-7,8-dihydro-1,6-naphthyridin-6(5H)-yl)pyridazine-3-carboxamide]: the Emax at 30 µM was found to be 81% and the EC50 came to 855 nM.

In the case of `O=C(NCc1ccncc1)c1ccc(N2CCc3ncc(C(F)(F)F)cc3C2)nn1` [Example 511, N-(pyridin-4-ylmethyl)-6-(3-(trifluoromethyl)-7,8-dihydro-1,6-naphthyridin-6(5H)-yl)pyridazine-3-carboxamide], the Emax at 30 µM was found to be 75% and the EC50 was 3160 nM.

Consider `Cc1cc(C(=O)N2Cc3ccncc3C2)nnc1N1CCc2ncc(N3CCCn4nccc43)cc2C1` [Example 512, (1,3-dihydro-2H-pyrrolo[3,4-c]pyridin-2-yl)(6-(3-(6,7-dihydropyrazolo[1,5-a]pyrimidin-4(5H)-yl)-7,8-dihydro-1,6-naphthyridin-6(5H)-yl)-5-methylpyridazin-3-yl)methanone], for which the Emax at 30 µM was determined as 95% and the EC50 is 19 nM.

In the case of `Cc1cc(C(=O)N2Cc3cccnc3C2)nnc1N1CCc2ncc(N3CCCn4nccc43)cc2C1` [Example 513, (5,7-dihydro-6H-pyrrolo[3,4-b]pyridin-6-yl)(6-(3-(6,7-dihydropyrazolo[1,5-a]pyrimidin-4(5H)-yl)-7,8-dihydro-1,6-naphthyridin-6(5H)-yl)-5-methylpyridazin-3-yl)methanone], the Emax at 30 µM came to 90% and the EC50 came to 51 nM.

Regarding `Cc1cc(C(=O)N2CCN(C)CC2)nnc1N1CCc2ncc(N3CCCn4nccc43)cc2C1` [Example 514, (6-(3-(6,7-dihydropyrazolo[1,5-a]pyrimidin-4(5H)-yl)-7,8-dihydro-1,6-naphthyridin-6(5H)-yl)-5-methylpyridazin-3-yl)(4-methylpiperazin-1-yl)methanone], the Emax at 30 µM came out at 103% and the EC50 was 635 nM.

Consider `Cc1cc(C(=O)N2CCOCC2)nnc1N1CCc2ncc(N3CCCn4nccc43)cc2C1` [Example 515, (6-(3-(6,7-dihydropyrazolo[1,5-a]pyrimidin-4(5H)-yl)-7,8-dihydro-1,6-naphthyridin-6(5H)-yl)-5-methylpyridazin-3-yl)(morpholino)methanone], for which the Emax at 30 µM was 107% and the EC50 worked out at 197 nM.

On to `Cc1cc(C(=O)NCc2cncs2)nnc1N1CCc2ncc(-c3ccnn3C)cc2C1` [Example 516, 5-methyl-6-(3-(1-methyl-1H-pyrazol-5-yl)-7,8-dihydro-1,6-naphthyridin-6(5H)-yl)-N-(thiazol-5-ylmethyl)pyridazine-3-carboxamide], for which the Emax at 30 µM was 102% and the EC50 was 31 nM.

In the case of `Cc1cc(C(=O)N2CC(c3ccncc3)C2)nnc1N1CCc2ncc(N3CCCn4nccc43)cc2C1` [Example 517, (6-(3-(6,7-dihydropyrazolo[1,5-a]pyrimidin-4(5H)-yl)-7,8-dihydro-1,6-naphthyridin-6(5H)-yl)-5-methylpyridazin-3-yl)(3-(pyridin-4-yl)azetidin-1-yl)methanone], the Emax at 30 µM was 76% and the EC50 was 12 nM.

On to `Cc1cc(C(=O)N2CC(N(C)C)C2)nnc1N1CCc2ncc(N3CCCn4nccc43)cc2C1` [Example 518, (6-(3-(6,7-dihydropyrazolo[1,5-a]pyrimidin-4(5H)-yl)-7,8-dihydro-1,6-naphthyridin-6(5H)-yl)-5-methylpyridazin-3-yl)(3-(dimethylamino)azetidin-1-yl)methanone], for which the Emax at 30 µM was 102% and the EC50 came out at 32 nM.

In the case of `Cc1cc(C(=O)N2CC(C)(C#N)C2)nnc1N1CCc2ncc(N3CCCn4nccc43)cc2C1` [Example 519, 1-(6-(3-(6,7-dihydropyrazolo[1,5-a]pyrimidin-4(5H)-yl)-7,8-dihydro-1,6-naphthyridin-6(5H)-yl)-5-methylpyridazine-3-carbonyl)-3-methylazetidine-3-carbonitrile], the Emax at 30 µM worked out at 80% and the EC50 was found to be 14 nM.

In the case of `Cc1cc(C(=O)NC2CN(CC(F)(F)F)C2)nnc1N1CCc2ncc(N3CCCn4nccc43)cc2C1` [Example 520, 6-(3-(6,7-dihydropyrazolo[1,5-a]pyrimidin-4(5H)-yl)-7,8-dihydro-1,6-naphthyridin-6(5H)-yl)-5-methyl-N-(1-(2,2,2-trifluoroethyl)azetidin-3-yl)pyridazine-3-carboxamide], the Emax at 30 µM stood at 104% and the concentration for a half-maximal effect (EC50) amounted to 43 nM.

Take `Cc1cc(C(=O)N2CCC(c3ccncc3)C2)nnc1N1CCc2ncc(N3CCCn4nccc43)cc2C1` (centres unmarked) [Example 521, (6-(3-(6,7-dihydropyrazolo[1,5-a]pyrimidin-4(5H)-yl)-7,8-dihydro-1,6-naphthyridin-6(5H)-yl)-5-methylpyridazin-3-yl)(3-(pyridin-4-yl)pyrrolidin-1-yl)methanone]: the Emax at 30 µM amounted to 99% and the EC50 is 98 nM.

On to `Cc1cc(C(=O)N2CC(C(F)F)C2)nnc1N1CCc2ncc(C(F)(F)F)cc2C1` [Example 522, (3-(difluoromethyl)azetidin-1-yl)(5-methyl-6-(3-(trifluoromethyl)-7,8-dihydro-1,6-naphthyridin-6(5H)-yl)pyridazin-3-yl)methanone], for which the Emax at 30 µM came out at 109% and the half-maximal effective concentration (EC50) was determined as 168 nM.

Take `Cc1cc(C(=O)NC2(C#N)CC2)nnc1N1CCc2ncc(C(F)(F)F)cc2C1` [Example 523, N-(1-cyanocyclopropyl)-5-methyl-6-(3-(trifluoromethyl)-7,8-dihydro-1,6-naphthyridin-6(5H)-yl)pyridazine-3-carboxamide]: the Emax at 30 µM was 109% and the EC50 stood at 74 nM.

As for `Cc1cc(C(=O)N2CC(C(F)F)C2)nnc1N1CCc2ncc(N3CCCn4nccc43)cc2C1` [Example 524, (3-(difluoromethyl)azetidin-1-yl)(6-(3-(6,7-dihydropyrazolo[1,5-a]pyrimidin-4(5H)-yl)-7,8-dihydro-1,6-naphthyridin-6(5H)-yl)-5-methylpyridazin-3-yl)methanone], the Emax at 30 µM is 93% and the EC50 was 18 nM.

Consider `Cc1cc(C(=O)NC2(C#N)CC2)nnc1N1CCc2ncc(N3CCCn4nccc43)cc2C1` [Example 525, N-(1-cyanocyclopropyl)-6-(3-(6,7-dihydropyrazolo[1,5-a]pyrimidin-4(5H)-yl)-7,8-dihydro-1,6-naphthyridin-6(5H)-yl)-5-methylpyridazine-3-carboxamide], for which the Emax at 30 µM is 82% and the EC50 was found to be 11 nM.

As to `Cc1cc(C(=O)N2CC(c3cccnc3)C2)nnc1N1CCc2ncc(N3CCCn4nccc43)cc2C1` [Example 526, (6-(3-(6,7-dihydropyrazolo[1,5-a]pyrimidin-4(5H)-yl)-7,8-dihydro-1,6-naphthyridin-6(5H)-yl)-5-methylpyridazin-3-yl)(3-(pyridin-3-yl)azetidin-1-yl)methanone], the maximum response (Emax) at 30 µM came to 116% and the EC50 was 17 nM.

`Cc1cc(C(=O)N2CC(Cl)C2)nnc1N1CCc2ncc(N3CCCn4nccc43)cc2C1` [Example 527, (3-chloroazetidin-1-yl)(6-(3-(6,7-dihydropyrazolo[1,5-a]pyrimidin-4(5H)-yl)-7,8-dihydro-1,6-naphthyridin-6(5H)-yl)-5-methylpyridazin-3-yl)methanone]: the Emax at 30 µM was found to be 129% and the EC50 came out at 16 nM.

Consider `Cc1cc(C(=O)N2CC(C(C)(C)O)C2)nnc1N1CCc2ncc(N3CCCn4nccc43)cc2C1` [Example 528, (6-(3-(6,7-dihydropyrazolo[1,5-a]pyrimidin-4(5H)-yl)-7,8-dihydro-1,6-naphthyridin-6(5H)-yl)-5-methylpyridazin-3-yl)(3-(2-hydroxypropan-2-yl)azetidin-1-yl)methanone], for which the Emax at 30 µM came out at 102% and the EC50 worked out at 53 nM.

Usually Emax stands for the maximal effect, on the per cent scale that the assay sets. In general, EC50 refers to the concentration needed to bring the measured effect to its halfway point.
